This passage reports EC50 results from patent US20080305500A1, “NOVEL CELL-BASED ASSAYS FOR IDENTIFYING ENHANCERS OR INHIBITORS OF T1R TASTE RECEPTORS (T1R2/T1R3 SWEET) AND UMAMI (T1R1/T1R3 UMAMI) TASTE RECEPTORS” (Senomyx, Inc., priority 2007, published 2008).

pEC50: −log10 of the molar value. Where two headings read alike, the source gives them in different places.

The test has as its target T1, human sweet receptor (T1R2 and T1R3) (Homo sapiens, UniProt Q7RTX0+Q8TE23).
T1 construct: expressed in transfected cells; host or cells: HEK293 cells co-expressing Galpha15
T1 sequence (Q8TE23 20-839): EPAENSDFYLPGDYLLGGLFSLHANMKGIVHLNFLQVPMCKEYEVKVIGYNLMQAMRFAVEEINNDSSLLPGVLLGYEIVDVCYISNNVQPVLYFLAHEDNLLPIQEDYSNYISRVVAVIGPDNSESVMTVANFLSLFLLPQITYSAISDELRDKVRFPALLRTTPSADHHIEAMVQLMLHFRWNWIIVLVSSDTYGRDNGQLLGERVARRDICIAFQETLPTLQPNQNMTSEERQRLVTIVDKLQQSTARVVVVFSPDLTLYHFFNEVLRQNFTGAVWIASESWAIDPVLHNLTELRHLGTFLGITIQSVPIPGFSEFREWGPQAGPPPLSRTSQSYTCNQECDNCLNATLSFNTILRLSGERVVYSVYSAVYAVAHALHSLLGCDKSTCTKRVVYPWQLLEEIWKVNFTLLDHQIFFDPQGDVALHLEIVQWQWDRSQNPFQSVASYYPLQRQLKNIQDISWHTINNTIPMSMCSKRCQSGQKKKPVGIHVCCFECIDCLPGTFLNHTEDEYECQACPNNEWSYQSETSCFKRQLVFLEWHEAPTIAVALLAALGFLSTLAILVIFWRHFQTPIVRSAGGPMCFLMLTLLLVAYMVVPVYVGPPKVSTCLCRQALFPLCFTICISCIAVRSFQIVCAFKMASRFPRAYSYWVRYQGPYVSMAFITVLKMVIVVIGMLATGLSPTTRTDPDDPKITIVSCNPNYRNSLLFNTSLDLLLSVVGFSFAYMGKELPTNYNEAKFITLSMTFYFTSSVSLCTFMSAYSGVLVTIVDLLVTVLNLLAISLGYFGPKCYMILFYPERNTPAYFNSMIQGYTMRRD
T1 sequence (Q7RTX0 21-852): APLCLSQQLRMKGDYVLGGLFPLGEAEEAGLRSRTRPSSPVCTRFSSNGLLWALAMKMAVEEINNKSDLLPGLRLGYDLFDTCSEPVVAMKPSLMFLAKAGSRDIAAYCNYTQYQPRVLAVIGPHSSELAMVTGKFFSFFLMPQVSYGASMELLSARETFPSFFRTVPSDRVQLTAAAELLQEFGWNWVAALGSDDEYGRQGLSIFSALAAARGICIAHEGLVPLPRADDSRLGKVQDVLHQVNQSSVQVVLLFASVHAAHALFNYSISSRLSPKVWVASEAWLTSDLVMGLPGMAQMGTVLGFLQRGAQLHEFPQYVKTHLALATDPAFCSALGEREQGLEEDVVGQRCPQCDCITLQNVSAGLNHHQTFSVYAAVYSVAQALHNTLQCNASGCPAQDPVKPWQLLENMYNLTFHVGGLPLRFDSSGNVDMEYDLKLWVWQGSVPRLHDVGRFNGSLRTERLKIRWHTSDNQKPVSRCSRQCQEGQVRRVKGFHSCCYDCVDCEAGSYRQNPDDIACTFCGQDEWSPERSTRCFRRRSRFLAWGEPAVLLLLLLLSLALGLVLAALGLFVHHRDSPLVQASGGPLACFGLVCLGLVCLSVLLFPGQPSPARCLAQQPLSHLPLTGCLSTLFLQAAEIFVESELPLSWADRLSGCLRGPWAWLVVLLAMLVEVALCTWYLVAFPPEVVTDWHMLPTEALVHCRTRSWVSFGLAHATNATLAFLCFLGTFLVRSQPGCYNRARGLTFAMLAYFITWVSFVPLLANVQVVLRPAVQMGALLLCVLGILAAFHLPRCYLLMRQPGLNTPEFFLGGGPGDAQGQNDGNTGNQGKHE
In words: Calcium imaging (Fluo3AM/FLIPR) sweet receptor enhancer assay in hT1R2/hT1R3-HEK293 Galpha15 cells, with pre-incubation step. Particulars: read-out: potency of Sucralose (dose-response). Type of test: cell-based. The procedure:
In the subject assays the receptor or cells expressing same will be placed in a suitable environment that facilitates the receptor or cells to be used in the particular assay. For instance, in the exemplified calcium imaging assays cells which express hT1R2/hT1R3-HEK293 G[…]15 cells were seeded in 384-well-clear bottom plates (Fisher) at a density of ˜50,000 cells/well and grown overnight at 37 degrees C. However, it is anticipated that these cell density conditions and/or cell culture devices potentially may be altered.
On the day of the experiment, cells were loaded with a commercially available calcium indicator dye Fluo3AM (2 uM) (Invitrogen) in D-PBS (Invitrogen) using a Multidrop (Titertek). (Again while Fluo3AM is exemplified it is anticipated that other known and available calcium indicators can be substituted therefore). […] After 30 minutes of rest time at room temperature, Fluo3AM-loaded cell plate, a compound plate and a sweetener plate were loaded into a Fluorometric Imaging Plate Reader (FLIPR, Molecular Devices). […] Imaging was initiated with the acquisition of the baseline fluorescence for a period of 7 to 10 seconds, and then cells were stimulated on line with addition of 25 µl/well of the compound plate (pre-incubation step). […]

`OC[C@H]1O[C@H](O[C@]2(CCl)O[C@H](CCl)[C@@H](O)[C@@H]2O)[C@H](O)[C@@H](O)[C@H]1Cl` [Sucralose]: the pEC50 by setting is: (cells pre-incubated with S2423 (50 uM or 25 uM final)) 4.96; (without S2423) 4.28.
